In the supplement of paper PMC10307832:

Legend:
Assay in all cases: relative viability (nuclei count vs DMSO), 5 days (fraction); higher = more cells survive
NCI-H2085 = system: NCI-H2085
Procedure, shortened: (§1)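 Medians of duplicate plates are given as relative viability. That measure is the nuclei count in treated wells divided by the count in vehicle wells. Counts were taken on 4× images of lung cancer cell lines in 1536-well plates, 5 days after pin-tool dosing the day after seeding with one drug alone or a fixed anchor-drug dose plus five library-drug doses (not always all listed) in √10 steps.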

NCI-H460 = system: NCI-H460
Procedure, shortened: as §1

COR-L23 = system: COR-L23
Procedure, shortened: as §1

NCI-H1563 = system: NCI-H1563
Procedure, shortened: as §1

NCI-H1355 = system: NCI-H1355
Procedure, shortened: as §1

NCI-H2023 = system: NCI-H2023
Procedure, shortened: as §1

HCC-366 = system: HCC-366
Procedure, shortened: as §1

LOU-NH91 = system: LOU-NH91
Procedure, shortened: as §1

NCI-H838 = system: NCI-H838
Procedure, shortened: as §1

NCI-H1975 = system: NCI-H1975
Procedure, shortened: as §1

BEN = system: BEN
Procedure, shortened: as §1

NCI-H1437 = system: NCI-H1437
Procedure, shortened: as §1

LU99A = system: LU99A
Procedure, shortened: as §1

SK-LU-1 = system: SK-LU-1
Procedure, shortened: as §1

CAL-12T = system: CAL-12T
Procedure, shortened: as §1

NCI-H1651 = system: NCI-H1651
Procedure, shortened: as §1

NCI-H358 = system: NCI-H358
Procedure, shortened: as §1

NCI-H1650 = system: NCI-H1650
Procedure, shortened: as §1

NCI-H1793 = system: NCI-H1793
Procedure, shortened: as §1

NCI-H1734 = system: NCI-H1734
Procedure, shortened: as §1

NCI-H441 = system: NCI-H441
Procedure, shortened: as §1

`COc1nc(C)cnc1NS(=O)(=O)c1cccnc1-c1ccc(-c2nnco2)cc1` [Zibotentan] + CS(=O)(=O)N1CCN(Cc2cc3nc(-c4cccc5[nH]ncc45)nc(N4CCOCC4)c3s2)CC1 [Pictilisib] (partner 1 µM) was tested, and the relative viability (NCI-H2085; first compound 0.08 µM) was 0.477, the relative viability (NCI-H2085; first compound 0.253 µM) was 0.495 and the relative viability (NCI-H2085; first compound 0.8 µM) was 0.477. It also gave a relative viability (NCI-H2085; first compound 2.53 µM) of 0.517, a relative viability (NCI-H460; first compound 0.08 µM) of 0.351 and a relative viability (NCI-H460; first compound 0.253 µM) of 0.336. The relative viability (NCI-H460; first compound 0.8 µM) was 0.327, the relative viability (NCI-H460; first compound 2.53 µM) was 0.38 and the relative viability (COR-L23; first compound 0.08 µM) was 0.728. For the same molecule, the relative viability (COR-L23; first compound 0.253 µM) was 0.662, the relative viability (COR-L23; first compound 0.8 µM) was 0.757 and the relative viability (COR-L23; first compound 2.53 µM) was 0.921. It also gave a relative viability (NCI-H1563; first compound 0.08 µM) of 0.635, a relative viability (NCI-H1563; first compound 0.253 µM) of 0.594 and a relative viability (NCI-H1563; first compound 0.8 µM) of 0.652. It also gave a relative viability (NCI-H1563; first compound 2.53 µM) of 0.639, a relative viability (NCI-H1355; first compound 0.08 µM) of 0.403 and a relative viability (NCI-H1355; first compound 0.253 µM) of 0.424. The relative viability (NCI-H1355; first compound 0.8 µM) was 0.431, the relative viability (NCI-H1355; first compound 2.53 µM) was 0.436 and the relative viability (NCI-H2023; first compound 0.08 µM) was 0.279. For the same molecule, the relative viability (NCI-H2023; first compound 0.253 µM) was 0.127, the relative viability (NCI-H2023; first compound 0.8 µM) was 0.226 and the relative viability (NCI-H2023; first compound 2.53 µM) was 0.26. For the same molecule, the relative viability (HCC-366; first compound 0.08 µM) was 0.145, the relative viability (HCC-366; first compound 0.253 µM) was 0.156 and the relative viability (HCC-366; first compound 0.8 µM) was 0.141. It also gave a relative viability (HCC-366; first compound 2.53 µM) of 0.148, a relative viability (LOU-NH91; first compound 0.08 µM) of 0.497 and a relative viability (LOU-NH91; first compound 0.253 µM) of 0.468. The relative viability (LOU-NH91; first compound 0.8 µM) was 0.515, the relative viability (LOU-NH91; first compound 2.53 µM) was 0.54 and the relative viability (NCI-H838; first compound 0.08 µM) was 0.451. For the same molecule, the relative viability (NCI-H838; first compound 0.253 µM) was 0.406, the relative viability (NCI-H838; first compound 0.8 µM) was 0.582 and the relative viability (NCI-H838; first compound 2.53 µM) was 0.518. The relative viability (NCI-H1975; first compound 0.08 µM) was 0.311, the relative viability (NCI-H1975; first compound 0.253 µM) was 0.262 and the relative viability (NCI-H1975; first compound 0.8 µM) was 0.293. It also gave a relative viability (NCI-H1975; first compound 2.53 µM) of 0.299, a relative viability (BEN; first compound 0.08 µM) of 0.652 and a relative viability (BEN; first compound 0.253 µM) of 0.448. It also gave a relative viability (BEN; first compound 0.8 µM) of 0.55, a relative viability (BEN; first compound 2.53 µM) of 0.552 and a relative viability (NCI-H1437; first compound 0.08 µM) of 0.462. The relative viability (NCI-H1437; first compound 0.253 µM) was 0.334, the relative viability (NCI-H1437; first compound 0.8 µM) was 0.366 and the relative viability (NCI-H1437; first compound 2.53 µM) was 0.582. The relative viability (LU99A; first compound 0.08 µM) was 0.362, the relative viability (LU99A; first compound 0.253 µM) was 0.314 and the relative viability (LU99A; first compound 0.8 µM) was 0.343. For the same molecule, the relative viability (LU99A; first compound 2.53 µM) was 0.371, the relative viability (SK-LU-1; first compound 0.08 µM) was 0.603 and the relative viability (SK-LU-1; first compound 0.253 µM) was 0.456. For the same molecule, the relative viability (SK-LU-1; first compound 0.8 µM) was 0.603, the relative viability (SK-LU-1; first compound 2.53 µM) was 0.54 and the relative viability (CAL-12T; first compound 0.08 µM) was 0.395. The relative viability (CAL-12T; first compound 0.8 µM) was 0.453, the relative viability (CAL-12T; first compound 2.53 µM) was 0.513 and the relative viability (NCI-H1651; first compound 0.08 µM) was 0.742. The relative viability (NCI-H1651; first compound 0.253 µM) was 0.427, the relative viability (NCI-H1651; first compound 0.8 µM) was 0.705 and the relative viability (NCI-H1651; first compound 2.53 µM) was 0.602. The relative viability (NCI-H358; first compound 0.08 µM) was 0.318, the relative viability (NCI-H358; first compound 0.8 µM) was 0.395 and the relative viability (NCI-H358; first compound 2.53 µM) was 0.378. The relative viability (NCI-H1650; first compound 0.08 µM) was 0.675, the relative viability (NCI-H1650; first compound 0.8 µM) was 0.638 and the relative viability (NCI-H1650; first compound 2.53 µM) was 0.658. For the same molecule, the relative viability (NCI-H1793; first compound 0.08 µM) was 0.429, the relative viability (NCI-H1793; first compound 0.253 µM) was 0.306 and the relative viability (NCI-H1793; first compound 0.8 µM) was 0.391. It also gave a relative viability (NCI-H1793; first compound 2.53 µM) of 0.345, a relative viability (NCI-H1734; first compound 0.08 µM) of 0.516 and a relative viability (NCI-H1734; first compound 0.253 µM) of 0.442. For the same molecule, the relative viability (NCI-H1734; first compound 0.8 µM) was 0.461, the relative viability (NCI-H1734; first compound 2.53 µM) was 0.43 and the relative viability (NCI-H441; first compound 0.08 µM) was 0.518. For the same molecule, the relative viability (NCI-H441; first compound 0.253 µM) was 0.39, the relative viability (NCI-H441; first compound 0.8 µM) was 0.545 and the relative viability (NCI-H441; first compound 2.53 µM) was 0.632.
